Assay results from US5663346A, “Substituted azaindolylidene compounds and process for their preparation” (Pharmacia S.p.A., priority 1994, dated 1997).

Assays:
K562 cells = assay: K562 cell Growth Inhibition Assay; format: cell-based; details: Homo sapiens, 66 h incubation, [3H]-Thymidine incorporation, with or without 10% foetal calf serum
Procedure: In-vivo Assay K562 cell Growth Inhibition Assay 1 ml of K562 cells, grown in suspension, were incubated for 66 h with or without 10% foetal calf serum in the presence of 1 mCi of [^3 H]-Thymidine. Cells were harvested, washed three times in cold PBS and treated with 5% trichloroacetic acid for 5 min. on ice. […] The extract was counted in a liquid scintillation counter. The inhibitory activity data for a representative compound according to the present invention, obtained both in the in-vitro p45 v-abl kinase assay and in the in-vivo human chronic myeloid leukemia K562 cell growth inhibition assay described above, are set out in Table 1.

[1] = target: p45 v-abl tyrosine kinase; assay: p45 v-abl Kinase Assay ((Val5)-Angiotensin II phosphorylation); format: biochemical, Abelson murine leukemia virus; details: in-vitro; (Val5)-Angiotensin II 2 mM, ATP 50 mM, 40 ng abl-kinase, pH 8.0; read-out: Inhibition of p-45 v-abl kinase, IC50
Procedure: p45 v-abl Kinase Purification
The enzyme used in our test was the p45 v-abl tyrosine kinase which represents the catalytic domain of the Abelson tyrosine kinase (isolated from the Abelson murine leukemia virus). The p45 v-abl kinase was produced and isolated as described by Wang et al. in J. Biol. chem 260, 64 (1985) and by Ferguson et al. in J. Biol. Chem 260, 3652 (1985) and in Biochem J. 257, 321 (1989).
(Val^5 )-Angiotensin II phosphorylation was performed by incubation with 40 ng of purified abl-kinase and (g-^32 p)-ATP, in […] of buffer containing Tris-HCl 25 mM, Ph 8.0, MgCl2 10 Mm and dithiothreitol 0.1 Mm (kinase buffer). The reaction mixture was incubated for the indicated time at […] and the reaction stopped by adding […] of 5% trichloroacetic acid. After a brief incubation on ice, tubes were centrifuged. The supernatants were spotted on phosphocellulose paper squares (Whatman P-81) and washed extensively in acetic acid. The radioactivity bound to dried phosphocellulose squares was measured in a liquid scintillation counter. IC50 values were. calculated from triplicated determinations of each experimental point. Each inhibitor was tested at concentrations ranging from […] in the presence of fixed concentrations of peptide (2 mM) and ATP (50 mM).

Question: Which results are given for `Nc1ccc2c(c1)C(=Cc1c[nH]c3ncccc13)C(=O)N2` [5-amino-3-[(7-azaindol-3-yl)methylen]-2-oxindole ditrifluoroacetate]?
Answer: IC50 (K562 cells): 8.8 µM; IC50 [1]: 90 nM

Question: For `N#Cc1ccc2c(c1)C(=Cc1c[nH]c3ncccc13)C(=O)N2` [5-cyano-3-[(7-azaindol-3-yl)methylen]-2-oxindole], which IC50 (K562 cells) is on record?
Answer: The IC50 was 2.52 µM.

Question: And the IC50 [1]?
Answer: The IC50 was 980 nM.
